Literature values in patent US20120156286A1, “COMPOSITIONS AND METHODS FOR INCREASED DELIVERY OF COENZYME Q10” (IMAGENETIX, INC., priority 2010, published 2012).

Conditions: in vivo

Intestinal absorption: less than 10%
SMILES: COC1=C(OC)C(=O)C(C/C=C(\C)CC/C=C(\C)CC/C=C(\C)CC/C=C(\C)CC/C=C(\C)CC/C=C(\C)CC/C=C(\C)CC/C=C(\C)CC/C=C(\C)CCC=C(C)C)=C(C)C1=O [CoQ10, Coenzyme Q10]
